Experimental data reported in patent US5149704A, “Platelet activating antagonists” (Abbott Laboratories, priority 1991, dated 1992).
Structures can show the parent of a compound that is named as a salt.

Molecular target: T1, PAF receptor (Oryctolagus cuniculus, UniProt G1TEI7)
T1 construct: platelet membranes were prepared by centrifugation and washing; tissue Pel-Freez (Rogers, AR); host or cells: rabbit platelets from citrated whole blood (membranes)
Test: PAF receptor binding assay ([^3 H]C18 -PAF, rabbit platelet membranes)
Settings: 0.6 nM [^3 H]C18 -PAF, 60 min, 22-23 °C, Ki from IC50 by Cheng and Prusoff
Description: The ability of representative compounds of the present invention to inhibit PAF activity was determined in an in vitro test using the following method. Citrated whole rabbit blood was obtained from Pel-Freez (Rogers, AR). Rabbit platelets were prepared by centrifugation and washing. The platelets were lysed by freeze-thawing and sonication; platelet membranes were prepared by centrifugation and washing. Final membrane preparations were stored frozen in 10 mM Tris/5 mM MgCl2 /2 mM EDTA (TME buffer, pH 7.0) with 0.25M sucrose added for membrane stabilization. […] The final volume of the assay was 100 μl. The assay was conducted in […] (Millipore Corp.) filtration plates; incubation time was for 60 minutes at room temperature (22°-23° C.). "Specific binding" was operationally defined as the arithmetic difference between "total binding" of 0.6 nM [^3 H]C18 -PAF (in the absence of added PAF) and "nonspecific binding" (in the presence of 1 μM PAF). After the prescribed incubation, platelet membranes were filtered under vacuum, and washed with 1 millilitre of "binding buffer". The filters were dried and removed. The bound radioactivity was quantitated with a Berthold TLC-Linear Analyzer model LB2842. Dose-response curves of inhibition of specific [^3 H]C18 -PAF binding by test compounds were conducted in triplicate, with at least four doses covering the active range. Experiments were repeated at least once. IC50 values (concentration producing 50% inhibition) were determined by point-to-point evaluation. Ki values of inhibitory binding constants were calculated according to the method of Cheng and Prusoff [Biochem. Pharmacol. 22 (1973) 3099-3108] whereby [formula] The values of Ki for representative compounds of the present invention appear in Table 1.

T1 sequence (G1TEI7 1-342): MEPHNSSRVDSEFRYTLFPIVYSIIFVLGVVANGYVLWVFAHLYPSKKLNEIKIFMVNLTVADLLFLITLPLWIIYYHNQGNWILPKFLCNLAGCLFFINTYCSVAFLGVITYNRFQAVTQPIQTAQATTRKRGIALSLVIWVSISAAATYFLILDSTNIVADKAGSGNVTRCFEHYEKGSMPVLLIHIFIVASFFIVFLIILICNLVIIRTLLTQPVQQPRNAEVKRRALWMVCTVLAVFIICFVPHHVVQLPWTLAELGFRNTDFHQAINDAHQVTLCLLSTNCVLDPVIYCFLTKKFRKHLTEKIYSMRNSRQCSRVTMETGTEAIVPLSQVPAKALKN

Compound	Ki [nM]
COc1cc(C(=O)c2cccc(NC[C@H]3CC[C@@H](c4cccnc4)N3)c2)cc(OC)c1OC (relative stereo) [13 (cis), N-[3-(3,4,5-trimethoxybenzoyl)phenyl][2-(3-pyridyl)-pyrrolidin-5-yl]methylamine]	2300
COc1cc(C(=O)c2cccc(NC[C@H]3CC[C@H](c4cccnc4)N3)c2)cc(OC)c1OC (relative stereo) [13 (trans), N-[3-(3,4,5-trimethoxybenzoyl)phenyl][2-(3-pyridyl)-pyrrolidin-5-yl]methylamine]	8700
CC(C)(C)OC(=O)N1C(CNc2cccc(C(=O)c3ccccc3)c2)CSC1c1cccnc1 (stereo not drawn) [Example 3, N-(3-benzoylphenyl)2-(3-pyridinyl)-3-tert-butoxycarbonylthiazolid-4-ylmethylamine]	8700
O=C(c1ccccc1)c1cccc(NCC2CSC(c3cccnc3)N2)c1 (stereo not drawn) [Example 4, N-(3-benzoylphenyl)2-(3-pyridinyl)thiazolid-4-ylmethylamine]	23
O=C(c1ccccc1)c1cccc(NCC2CSC(c3cccnc3)N2)c1 (stereo not drawn) [Example 5, N-(3-benzoylphenyl)2-(3-pyridinyl)thiazolid-4-ylmethylamine trihydrochloride]	38
c1ccc(Oc2ccc(NCC3CSC(c4cccnc4)N3)cc2)cc1 (stereo not drawn) [Example 8, N-(4-phenoxyphenyl)2-(3-pyridinyl)thiazolid-4-ylmethylamine]	190
CN1C(CNc2cccc(C(=O)c3ccccc3)c2)CSC1c1cccnc1 (stereo not drawn) [Example 9, N-(3-benzoylphenyl)[2-(3-pyridinyl)-3-methylthiazolid-4-yl]methylamine dihydrochloride]	1400
O=C(NCC1CSC(c2cccnc2)N1)Nc1cccc(C(=O)c2ccccc2)c1 (stereo not drawn) [Example 15, N-[2-(3-pyridinyl)thiazolid-4-ylmethyl]N'-(3-benzoylphenyl)urea dihydrochloride]	150
N-[3-(3,4,5-trimethoxybenzoylphenyl]2-(3-pyridinyl)dithiolan-4-ylmethylamine dihydrochloride [Example 10]	900

Second part, the compound after the results:

Ki [nM]	Compound
6770	COc1cc(C(=O)c2cccc(NCC3CSC(c4cccnc4)N3C(=O)OC(C)(C)C)c2)cc(OC)c1OC (single isomer, unassigned) [Example 1a]
13000	COc1cc(C(=O)c2cccc(NCC3CSC(c4cccnc4)N3C(=O)OC(C)(C)C)c2)cc(OC)c1OC (single isomer, unassigned) [Example 1b]
10	COc1cc(C(=O)c2cccc(NCC3CSC(c4cccnc4)N3)c2)cc(OC)c1OC (stereo not drawn) [Example 2, N-[3-(3,4,5-trimethoxybenzoylphenyl]2-(3-pyridinyl)thiazolid-4-ylmethylaminetrihydrochloride]
430	O=C(c1ccccc1)c1ccccc1NCC1CSC(c2cccnc2)N1 (stereo not drawn) [Example 6, N-(2-benzoylphenyl)2-(3-pyridinyl)thiazolid-4-ylmethylamine]
1200	O=C(c1ccccc1)c1ccc(NCC2CSC(c3cccnc3)N2)cc1 (stereo not drawn) [Example 7, N-(4-benzoylphenyl)2-(3-pyridinyl)thiazolid-4-ylmethylamine]
160	O=C(c1ccccc1)c1cccc(NCC2CSC(c3cccnc3)S2)c1 (stereo not drawn) [Example 11, N-(3-benzoylphenyl)2-(3-pyridinyl)dithiolan-4-ylmethylamine]
3400	CN(CC1CSC(c2cccnc2)N1)c1cccc(C(=O)c2ccccc2)c1 (stereo not drawn) [Example 12, N-(3-benzoylphenyl) N-methyl 2-(3-pyridinyl)thiazolid-4-ylmethylamine trihydrochloride]
110	COc1cc(C(=O)c2cccc(NC(=O)NCC3CSC(c4cccnc4)N3)c2)cc(OC)c1OC (stereo not drawn) [Example 14, N-[2-(3-pyridinyl)thiazolid-4-ylmethyl]-N'-[3-(3,4,5-trimethoxybenzoyl)phenyl]urea]
750	O=C(NCC1CSC(c2cccnc2)S1)Nc1cccc(C(=O)c2ccccc2)c1 (stereo not drawn) [Example 16, N-[2-(3-pyridinyl)dithiolan-4-ylmethyl]N'-(3-benzoylphenyl)urea]
